Measured values from US20180282605A1, “METHOD OF MONITORING A PARAMETER OF A HYDROCARBON WELL, PIPELINE OR FORMATION” (JOHNSON MATTHEY PUBLIC LIMITHED COMPANY, priority 2015, published 2018).

experiment: log P (octanol/water) of tracer anions; format: physicochemical; details: log of ratio of equilibrium concentration in oil (octanol) to that in water, representative example values
Excerpt: The invention concerns the use of halogenated thiophene carboxylic acids or halogenated thiophene sulfonic acids, or salts of either, in tracing applications in hydrocarbon wells. Such compounds are not naturally found in hydrocarbon wells and formations and have not been previously used as tracers in such wells and formations. Tracers comprising such compounds may therefore be used as tracers in such wells and formations without the results of the tracing being affected by contamination. Moreover, the applicant has determined that non-halogenated thiophene compounds exist naturally in hydrocarbon formations and the compounds of the invention are therefore expected to be sufficiently stable, for example to have sufficient thermal stability, to survive the conditions in a hydrocarbon well. Since, unlike the naturally occurring thiophene compounds, the compounds of formula 1 are halogenated they are advantageously also detectable, for example using GC-MS, in very low concentrations, for example concentrations of 1 ppb or less, preferably concentrations of 100 ppt or less, more preferably concentrations of 10 ppt or less and yet more preferably concentrations of 1 ppt or less. The compounds of the invention may also show a high selectivity towards water instead of oil. Thus the tracer may be a water tracer. […] The log P value is a well-known value for characterising the preference of a compound for water or oil. The value is the log of the ratio of the equilibrium concentration of the compound in oil (octanol) to the equilibrium concentration of the compound in water. Thus the concentration of the compound in water is preferably at least 10 times, and more preferably at least 100 times, that of the compound in oil. It may be that the salt of the compound (or the anion of the salt) is more soluble in water than the acid. For that reason, it is preferable to use the salt as the tracer.

In order of falling logP:
1. Cc1cc(C(=O)O)sc1F  -1.16
2. O=C(O)c1csc(Cl)c1  -1.35
3. O=C(O)c1csc(F)c1  -1.81
